Broadly, the IC50 is the concentration that gives 50% inhibition. Higher therefore signals lower potency. Usually inhibition stands for how much of the control response was suppressed. Lower therefore signals little suppression.

Molecules are shown by their SMILES. Bounds are passed on as bounds.

Data on 32 molecules can be found in US6653306B1, “Epoxy-steroidal aldosterone antagonist and angiotensin II antagonist combination therapy” (G.D. Searle & Co., priority 1995, dated 2003).

In one assay the test system is rabbit aortic rings. Briefly: Assay B: In vitro vascular smooth muscle response for AII (antagonist activity, pA2). Format: cell-based. The conditions noted are these: Oryctolagus cuniculus, in vitro vascular smooth muscle response; two values per cell separated by / are separate determinations; read-out: Assay B pA2 (converted). How it is done:
Assay B: In Vitro Vascular Smooth Muscle-response for AII
The compounds of the invention were tested for antagonist activity in rabbit aortic rings. Male New Zealand white rabbits (2-2.5 kg) were sacrificed using an overdose of pentobarbital and exsanguinated via the carotid arteries. The thoracic aorta was removed, cleaned of adherent fat and connective tissue and then cut into 3-mm ring segments. The endothelium was removed from the rings by gently sliding a rolled-up piece of filter paper into the vessel lumen. The rings were then mounted in a water-jacketed tissue bath, maintained at 37° C., between moveable and fixed ends of a stainless steel wire with the moveable end attached to an FT03 Grass transducer coupled to a Model 7D Grass Polygraph for recording isometric force responses. The bath was filled with 20 ml of oxygenated (95% oxygen/5% carbon dioxide) Krebs solution of the following composition (mM): 130 NaCl, […], 15 KCl, 1.2 NaH2PO4, 1.2 MgSO4, 2.5 CaCl2, and 11.4 glucose. The preparations were equilibrated for one hour before approximately one gram of passive tension was placed on the rings. Angiotensin II concentration-response curves were then recorded (3×10^−10 to 1×10^−5 M). Each concentration of AII was allowed to elicit its maximal contraction, and then AII was washed out repeatedly for 30 minutes before rechallenging with a higher concentration of AII. Aorta rings were exposed to the test antagonist at […] for 5 minutes before challenging with AII. Adjacent segments of the same aorta ring were used for all concentration-response curves in the presence or absence of the test antagonist. The effectiveness of the test compound was expressed in terms of pA2 values and were calculated according to H. O. Schild [Br. J. Pharmacol, Chemother., 2,189-206 (1947)]. The pA2 value is the concentration of the antagonist which increases the EC50 value for AII by a factor of two. Each test antagonist was evaluated in aorta rings from two rabbits.

For assay [1], the target named is angiotensin II AT1 receptor. In words: Assay A: Angiotensin II binding activity (125I-AII displacement, rat uterine membrane preparation). How it is done:
Assay A: Antiotensin II Binding Activity
Compounds of the invention were tested for ability to bind to the smooth muscle angiotensin II receptor using a rat uterine membrane preparation. […] Rat uterine membranes were prepared from fresh tissue. All procedures were carried out at 4° C. Uteri were stripped of fat and homogenized in phosphate-buffered saline at pH 7.4 containing 5 mM EDTA. The homogenate was centrifuged at 1500×g for 20 min., and the supernatant was recentrifuged at 100,000×g for 60 min. The pellet was resuspended in buffer consisting of 2 mM EDTA and 50 mM Tris-HCl (pH 7.5) to a final protein concentration of 4 mg/ml. […] The reaction was initiated by the addition of membrane protein and the mixture was incubated at 25° C. for 60 min. The incubation was terminated with ice-cold 50 mM Tris-HCl (pH 7.5) and the mixture was filtered to separate membrane-bound labelled peptide from the free ligand. The incubation tube and filter were washed with ice-cold buffer. Filters were assayed for radioactivity in a Micromedic gamma counter.
Nonspecific binding was defined as binding in the presence of 10 μM of unlabelled AII. Specific binding was calculated as total binding minus nonspecific binding. […] Binding data were analyzed by a nonlinear least-squares curve fitting program.

For another assay, the system named is pressor response to AII. Briefly: Assay C: In vivo intragastric pressor assay response for AII antagonists. More on the design: species or system rat. Conditions: dose 3 mg/kg, intragastric, or intraduodenal for examples listed; for inhibition at 3 mg/kg: Rattus norvegicus. Here is the method:
Assay C: In Vivo Intragastric Pressor Assay Response for AII Antagonists
Male Sprague-Dawley rats weighing 225-300 grams were anesthetized with methohexital (30 mg/kg, i.p.) and catheters were implanted into the femoral artery and vein. The catheters were tunneled subcutaneously to exit dorsally, posterior to the head and between the scapulae. The catheters were filled with heparin (1000 units/ml of saline). The rats were returned to their cage and allowed regular rat chow and water ad libitum. After full recovery from surgery (3-4 days), rats were placed in Lucite holders and the arterial line was connected to a pressure transducer. Arterial pressure was recorded on a Gould polygraph (mmHg). Angiotensin II was administered as a 30 ng/kg bolus via the venous catheter delivered in a 50 μl volume with a 0.2 ml saline flush. The pressor response in mm Hg was measured by the differer.-:e from pre-injection arterial pressure to the maximum pressure achieved. The AII injection was repeated every 10 minutes until three consecutive injections yielded responses within 4 mmHg of each other. These three responses were then averaged and represented the control response to AII. The test compound was suspended in 0.5% methylcellulose in water and was administered by gavage. The volume administered was 2 ml/kg body weight. The standard dose was 3 mg/kg. Angiotensin II bolus injections were given at 30, 45, 60, 75, 120, 150, and 180 minutes after gavage. The pressor response to AII was measured at each time point. The rats were then returned to their cage for future testing. A minimum of 3 days was allowed between tests. Percent inhibition was calculated for each time point following gavage by the following formula:
[(Control Response—Response at time point)/Control Response]×100.

In the case of `CCCCc1nc(CCCC)n(Cc2ccc(-c3cnccc3-c3nnn[nH]3)cc2)n1` [Compound 244], the Kb in the assay with rabbit aortic rings was 67.6 nM. In assay [1], the concentration for half-maximal inhibition (IC50) was 150 nM.

Turning to `CCCCc1nc(CCCO)n(Cc2ccc(-c3ccccc3-c3nnn[nH]3)cc2)n1` [Compound 46], the Kb in the assay on rabbit aortic rings was 158 nM. The IC50 in assay [1] turned out to be 110 nM.

`CCCCc1nc2c(Cl)nnc(Cl)c2n1Cc1ccc(-c2ccccc2-c2nnn[nH]2)cc1` [Compound 110]: in the assay on rabbit aortic rings, the Kb is 398 nM. In assay [1], the concentration for half-maximal inhibition (IC50) is 590 nM.

On to `CCCCc1nn(CC(=O)O)c(=O)n1Cc1ccc(-c2ccccc2-c2nn[nH]n2)cc1` [Compound 87], for which the Kb in the assay on rabbit aortic rings is 15.8 nM. The concentration for half-maximal inhibition (IC50) in assay [1] was 91 nM.

On to `CCCCc1nc2c(O)nnc(CCC)c2n1Cc1ccc(-c2ccccc2-c2nn[nH]n2)cc1` [Compound 114], for which the Kb with rabbit aortic rings was 398 nM.

In the case of `CCCCc1cn(CCC2=CCCC2)c(=O)n1Cc1ccc(-c2ccccc2-c2nnn[nH]2)nc1` [Compound 212], in the assay with pressor response to AII, at 3 mg/kg the inhibition was 15% and the “Assay C Duration” value was found to be 180 min. This molecule also returned a 50% inhibitory concentration (IC50) in assay [1] of 23 nM.

`CCCCc1cn(C(C)C)c(=O)n1Cc1ccc(-c2ccccc2-c2nnn[nH]2)nc1` [Compound 200]: in the assay on pressor response to AII, the inhibition at 3 mg/kg came to 45% and the “Assay C Duration” value is >180 min. The molecule further had a half-inhibitory concentration (IC50) in assay [1] of 20 nM.

In the case of `CCCCCc1cn(CCCC)c(=O)n1Cc1ccc(-c2ccccc2-c2nnn[nH]2)nc1` [Compound 190], in the assay with pressor response to AII, the inhibition at 3 mg/kg is 10% and the “Assay C Duration” value is 180 min. The concentration for half-maximal inhibition (IC50) in assay [1] turned out to be 10 nM.

As to `CCCCc1nc(-c2ccccc2Cl)n(Cc2ccc(-c3ccccc3-c3nnn[nH]3)nc2)n1` [Compound 268], the inhibition at 3 mg/kg in the assay on pressor response to AII was 0%. The IC50 in assay [1] turned out to be 520 nM.

In the case of `CCCCc1nc(CC(C)(C)C)nn1Cc1ccc(-c2ccccc2-c2nnn[nH]2)nc1` [Compound 249], in the assay on pressor response to AII, testing at 3 mg/kg gave an inhibition of 20% and the “Assay C Duration” value is >180 min. In assay [1], this molecule displayed an IC50 of 4.4 nM.

For the molecule `CCCCc1cn(CCCC)c(=O)n1Cc1ccc(-c2ccccc2-c2nnn[nH]2)nc1` [Compound 185], in the assay on pressor response to AII, the inhibition at 3 mg/kg was 50% and the “Assay C Duration” value is >180 min. In assay [1], this molecule registered a 50% inhibitory concentration (IC50) of 6.5 nM.

As for `CCCCn1cc(C2CCCCC2)n(Cc2ccc(-c3ccccc3-c3nnn[nH]3)nc2)c1=O` [Compound 191], in the assay with pressor response to AII, the inhibition at 3 mg/kg amounted to 10% and the “Assay C Duration” value was found to be 180 min. The molecule further gave an IC50 in assay [1] of 81 nM.

As to `CCCCCc1nc(CCCCC)n(Cc2ccc(-c3ccccc3-c3nnn[nH]3)cc2)n1` [Compound 13], the Kb in the assay on rabbit aortic rings was 2 nM.

Take `CCCCc1cn(CCc2cccs2)c(=O)n1Cc1ccc(-c2ccccc2-c2nnn[nH]2)nc1` [Compound 209]: in the assay on pressor response to AII, 3 mg/kg produced 25% inhibition and the “Assay C Duration” value was >180 min. In assay [1], this molecule had an IC50 of 5 nM.

As to `CCCCc1nc(-c2ccccc2Cl)nn1Cc1ccc(-c2ccccc2-c2nnn[nH]2)nc1` [Compound 267], in the assay on pressor response to AII, the inhibition at 3 mg/kg amounted to 25% and the “Assay C Duration” value was >180 min. The IC50 in assay [1] was 25 nM.

`CCCCc1cn(C(C)(C)C)c(=O)n1Cc1ccc(-c2ccccc2-c2nnn[nH]2)nc1` [Compound 201]: in the assay with pressor response to AII, the inhibition at 3 mg/kg came out at 10% and the “Assay C Duration” value is 180 min. Moreover, the concentration for half-maximal inhibition (IC50) in assay [1] stood at 17 nM.

Consider `CCCCc1cn(CCC(C)C)c(=O)n1Cc1ccc(-c2ccccc2-c2nnn[nH]2)nc1` [Compound 198], for which, in the assay with pressor response to AII, testing at 3 mg/kg gave an inhibition of 35% and the “Assay C Duration” value is >180 min. The IC50 in assay [1] came out at 7.6 nM.

As to `CCCCc1cn(-c2ccccc2CC)c(=O)n1Cc1ccc(-c2ccccc2-c2nnn[nH]2)cc1` [Compound 271], the inhibition at 3 mg/kg in the assay on pressor response to AII is 20%. In addition, the 50% inhibitory concentration (IC50) in assay [1] is 14 nM.

`CCCCc1cn(CC2CCCC2)c(=O)n1Cc1ccc(-c2ccccc2-c2nnn[nH]2)nc1` [Compound 208]: in the assay with pressor response to AII, the inhibition at 3 mg/kg worked out at 50% and the “Assay C Duration” value was >180 min. In assay [1], this molecule gave a half-maximal inhibitory concentration (IC50) of 22 nM.

On to `CCCCc1cn(CCC(C)(C)C)c(=O)n1Cc1ccc(-c2ccccc2-c2nnn[nH]2)nc1` [Compound 203], for which, in the assay on pressor response to AII, the inhibition at 3 mg/kg is 50% and the “Assay C Duration” value was >180 min. This molecule registered an IC50 in assay [1] of 9.2 nM.

As for `CCCCc1cn(-c2c(C)cc(C)cc2C)c(=O)n1Cc1ccc(-c2ccccc2-c2nnn[nH]2)nc1` [Compound 232], in the assay with pressor response to AII, the inhibition at 3 mg/kg is 70% and the “Assay C Duration” value is >180 min. For the same molecule, the 50% inhibitory concentration (IC50) in assay [1] stood at 4.4 nM.

Consider `CCCCc1cn(-c2c(Cl)cccc2Cl)c(=O)n1Cc1ccc(-c2ccccc2-c2nnn[nH]2)nc1` [Compound 221], for which, in the assay with pressor response to AII, the inhibition at 3 mg/kg is 25% and the “Assay C Duration” value is >180 min. In assay [1], the IC50 is 4.8 nM.

As for `CCCCc1cn(-c2cccn2CC)c(=O)n1Cc1ccc(-c2ccccc2-c2nnn[nH]2)nc1` [Compound 238], in the assay with pressor response to AII, testing at 3 mg/kg gave an inhibition of 15% and the “Assay C Duration” value was >180 min. Besides, in assay [1], the 50% inhibitory concentration (IC50) amounted to 1.7 nM.

Regarding `CCCCc1cn(-c2ccccc2C(C)C)c(=O)n1Cc1ccc(-c2ccccc2-c2nnn[nH]2)cc1` [Compound 272], in the assay on pressor response to AII, the inhibition at 3 mg/kg came to 70% and the “Assay C Duration” value is >180 min. For the same molecule, the IC50 in assay [1] came out at 97 nM.

`CCCCn1nc(C2OCCCO2)nc1Cc1ccc(-c2ccccc2-c2nnn[nH]2)nc1` [Compound 180]: in the assay with pressor response to AII, the inhibition at 3 mg/kg amounted to 25% and the “Assay C Duration” value came to 180 min. In addition, the IC50 in assay [1] worked out at 20 nM.

As for `CCCCc1nc2cnncc2n1Cc1ccc(-c2ccccc2-c2nnn[nH]2)cc1` [Compound 117], the Kb with rabbit aortic rings was 316 nM.

`CCCCn1nc(C(OC)OC)nc1Cc1ccc(-c2ccccc2-c2nnn[nH]2)nc1` [Compound 175]: in the assay with pressor response to AII, the inhibition at 3 mg/kg is 0% and the “Assay C Duration” value amounted to 0 min. For the same molecule, in assay [1], the half-inhibitory concentration (IC50) was found to be 27 nM.

On to `CCCCn1nc(C(F)(F)CCC)nc1Cc1ccc(-c2ccccc2-c2nnn[nH]2)nc1` [Compound 170], for which, in the assay on pressor response to AII, 3 mg/kg produced 40% inhibition and the “Assay C Duration” value was >180 min. The 50% inhibitory concentration (IC50) in assay [1] was determined as 26 nM.

Consider `CCCCc1nc2c(O)nncc2n1Cc1ccc(-c2ccccc2-c2nnn[nH]2)cc1` [Compound 116], for which the Kb in the assay on rabbit aortic rings is 316 nM.

As to `CCCCc1nc(CC(C)(C)C)n(Cc2ccc(-c3ccccc3-c3nnn[nH]3)nc2)n1` [Compound 250], in the assay with pressor response to AII, 3 mg/kg produced 0% inhibition. In addition, the concentration for half-maximal inhibition (IC50) in assay [1] was 43 nM.

As for `CCCCc1nc(C(=O)N(C)C(C)(C)C)n(Cc2ccc(-c3ccccc3-c3nnn[nH]3)nc2)n1` [Compound 256], in the assay with pressor response to AII, the inhibition at 3 mg/kg is 30% and the “Assay C Duration” value was >180 min. The IC50 in assay [1] is 4.1 nM.

For `CCCCc1cn(-c2c(CC)cccc2CC)c(=O)n1Cc1ccc(-c2ccccc2-c2nnn[nH]2)nc1` [Compound 234], 3 mg/kg produced 20% inhibition with pressor response to AII. The IC50 in assay [1] was 5 nM.
